Experimental data reported in US20220008401A1, “COMPOSITIONS AND METHODS FOR TREATING PULMONARY DISEASE WITH MATRIX METALLOPROTEINASE INHIBITORS” (DARSHA LLC, priority 2019, published 2022).

Key:
[1] = Presence of aerosolized Compound 1 in lung of LPS-injured mice; format: in vivo, C57BL/6J mice; details: single aerosolized dose 35 mg/kg, one hour following nebulization
Procedure: MMP 9 was selected as a target as it is a well-established mediator of inflammation in lung injury. 12-week-old male C57BL/6J mice were intranasally instilled with LPS (1.5 mg/kg of 1 mg/ml solution in sterile PBS). 24 hours later, these mice received a single dose of aerosolized MMP inhibitor (Compound 1, dissolved in PBS, 35 mg/kg) or PBS alone. One hour following nebulization, the mice were sacrificed and assessed for MMP activity in both the bronchoalveolar lavage fluid (BALF) and lung tissue homogenate obtained from treated mice. One hour following nebulization of Compound 1, the presence of the aerosolized Compound 1 in the lung was confirmed at concentrations >100 ng/g of tissue. MMP activity in BALF was determined using a commercially available MMP 9 Quantikine assay from R&D systems.

LPS injured mice [2] = experiment: Lung injury score (LIS) and H&E sections, LPS-injured mice, q6h x 4 doses; format: in vivo
integrin β1 = experiment: Integrin β1 immunofluorescent staining of human neutrophils; format: cell-based; details: Compound 1 treatment for 1 hour, n=3, p<0.05
From the text: Regulation of cell motility by the integrin β1 subunit is well-documented in multiple cell types, with several lines of evidence indicating MMPs play a significant role in expression and cellular localization of integrin β1 during neutrophil migration (Dumin J A, et al. Pro-collagenase-1 (matrix metalloproteinase-1) binds the alpha(2)beta(1) integrin upon release from keratinocytes migrating on type I collagen. J Biol Chem 2001; 276(31); Ugarte-Berzal E, et al. A 17-residue sequence from the matrix metalloproteinase-9 (MMP-9) hemopexin domain binds alpha4beta1 integrin and inhibits MMP-9-induced functions in chronic lymphocytic leukemia B cells. J Biol Chem 2012; 287(33)). To determine if MMP inhibition by Compound 1 interfered with integrin β1 expression in human neutrophils, cells were seeded onto glass chamber slides followed by Compound 1 treatment for 1 hour. Cells were fixed and immunofluorescent staining was performed for integrin β1 and staining intensity was measured using NIH ImageJ and standardized to the number of cells per field.

neutrophils (PMN) = experiment: BALF cell counts (cytospin, DifQuik), LPS-injured mice, single inhaled dose; format: in vivo; details: 1 hour following treatment
Procedure: Since substantial literature indicates neutrophils (PMN) are critical mediators of inflammatory damage in injured lung, we next assessed if inhaled Compound 1 attenuated PMN infiltration of LPS injured lungs. To achieve this, mice were injured with LPS and 24 h later received a single inhaled dose of Compound 1 and were sacrificed 1 hour after dosing. PMN infiltration was assessed by examining lung sections (qualitatively) and BALF (quantitatively) from Compound 1 treated and untreated mice. Quantitative examination was performed on BALF samples that were collected from each animal and subsequently subjected to cytospin centrifugation and DifQuik staining. The fraction of PMN present in each sample may be quantified by counting 300 cells of the inflammatory cell population across three different microscopic images. The obtained fraction may then be multiplied by the total cell count to estimate the number of PMNs present in the BALF.

human neutrophils = experiment: Human neutrophil migration in modified Boyden chamber (FMLP chemoattractant); format: cell-based; details: for neutrophil migration into the basal chamber: 1 hour
Procedure: To determine if this effect was relevant in humans we utilized a modified Boyden chamber to assess the effect of Compound 1 on migration of human neutrophils. […] The basal chamber was filled with media containing the chemoattractant N-Formylmethionyl-leucyl-phenylalanine (FMLP) or vehicle. The apical chamber was seeded with ˜100,000 neutrophils with the addition of Compound 1 or vehicle. In the basal chamber, the neutrophils were allowed to migrate for 1 hour after which the basal chamber was fixed, stained with DAPI, and photographed. Five fields per well were imaged and the number of neutrophils counted using NIH ImageJ.

MMP 9 = MMP 9 (Mus musculus, UniProt P41245); experiment: MMP-9 Quantikine assay on lung homogenates of LPS-injured mice; format: in vivo; parameters: One-hour post-Compound 1 treatment lung homogenates were collected and analyzed; from tissue; host or cells: lung tissue homogenate of LPS-injured mice
Procedure: Inhibition of MMP-9 by inhaled Compound 1 treatment was assessed using a Quantikine Assay (R&D systems). Mice were injured by nasal instillation of LPS followed by treatment with inhaled PBS or Compound 1 (5 mg/mL). One-hour post-Compound 1 treatment lung homogenates were collected and analyzed.

LPS injured mice [3] = experiment: FITC-albumin BALF:serum ratio (vascular permeability/edema), LPS-injured mice, single inhaled dose; format: in vivo, C57BL/6J mice; details: LPS 1.5 mg/kg; 24 hours later single aerosolized dose 35 mg/kg; sacrifice one hour after; n=6/group (control 0.44, LPS 1.1)
Procedure: We next determined if inhaled Compound 1 attenuated specific features of acute inflammatory lung injury that were also observed in response to LPS. Again, 12-week-old male C57BL/6J mice were intranasally instilled with LPS (1.5 mg/kg of 1 mg/ml solution in sterile PBS). 24 hours later, these mice received a single dose of aerosolized MMP inhibitor (Compound 1, dissolved in PBS, 35 mg/kg) or PBS alone and a tail vein injection of FITC labeled albumin (FITC-albumin). One hour following nebulization, the mice were sacrificed. The left lung was fixed in formalin from each animal, paraffin embedded, sectioned and stained with H&E to examine histological features indicative of lung injury. These were achieved by visually scoring each slide based on a lung injury scoring system developed by the American Thoracic Society for animal models of inflammatory lung injury.
Tissue edema was assessed using two methods. First, serum and BALF fluid were collected from mice and FITC-albumin levels were measured in each using a fluorescent microplate reader. Fluid leakage into injured lungs is indicative of increased vascular permeability and could be indicative of edema. A greater fluid leakage would also be characterized by increased levels of FITC-albumin in the BALF. To determine the level of vascular permeability and edema, the ratio of BALF FITC-albumin to serum FITC-albumin was calculated. […]

[4] = LPS treated mice, single inhaled dose

MMP 9, sequence (P41245 108-730): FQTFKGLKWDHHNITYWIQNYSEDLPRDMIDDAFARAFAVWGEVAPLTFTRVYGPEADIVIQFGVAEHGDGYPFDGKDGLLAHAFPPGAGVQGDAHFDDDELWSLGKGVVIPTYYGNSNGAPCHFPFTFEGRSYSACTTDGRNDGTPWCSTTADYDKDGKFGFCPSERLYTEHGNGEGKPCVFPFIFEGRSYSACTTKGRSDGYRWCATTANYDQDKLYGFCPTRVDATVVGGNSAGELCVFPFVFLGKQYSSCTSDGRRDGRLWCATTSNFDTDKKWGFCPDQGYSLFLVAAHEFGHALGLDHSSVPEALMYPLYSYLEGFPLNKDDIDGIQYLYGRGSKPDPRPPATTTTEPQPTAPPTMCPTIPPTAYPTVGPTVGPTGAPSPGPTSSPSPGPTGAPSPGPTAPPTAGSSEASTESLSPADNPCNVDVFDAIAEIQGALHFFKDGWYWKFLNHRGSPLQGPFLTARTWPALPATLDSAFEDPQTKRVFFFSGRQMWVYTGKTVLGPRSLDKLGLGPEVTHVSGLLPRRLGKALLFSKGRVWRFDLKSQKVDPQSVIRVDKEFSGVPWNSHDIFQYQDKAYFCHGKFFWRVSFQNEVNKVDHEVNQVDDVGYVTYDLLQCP

Question: For “butanamide, N-hydroxy-2-[[(4-hydroxyphenyl)sulfonyl](3-pyridinylmethyl)amino]-3-methyl, hydrochloride, (2R) [Compound 1]”, which “concentration of aerosolized Compound 1 in the lung” value [1] is on record?
Answer: The value was > 100 ng/g of tissue.

Question: What about the “Lung Injury Score (LIS)” value (LPS injured mice [2]; LPS 1.5 mg/kg, four doses (12 mg/kg) via nebulizer every 6 hours from 24 hours after LPS, n=5 (LPS only 0.524±0.054, PBS only 0.188±0.025)) of the same substance?
Answer: Its value is 0.277±0.031 LIS.

Question: What about the “inflammation in H&E stained lung sections (qualitative)” value (LPS injured mice [2]; LPS then four nebulized doses every 6 hours, vs mice only receiving LPS) of the same substance?
Answer: The value was “reduced inflammation”.

Question: And the “integrin β1 fluorescence intensity per cell” value (integrin β1)?
Answer: Its value is 2.88±1.23 RFU.

Question: What about the “total PMN counts in the BALF” value (neutrophils (PMN); LPS then 24 h later single inhaled dose, n=5/group, p=0.01 (LPS/PBS 5.3×10^6)) of the same substance?
Answer: The value was 1.2×10^6 neutrophils/ml.

Question: What about the “macrophage count in the BALF” value (neutrophils (PMN); [4]) of the same substance?
Answer: The value was “remained unchanged”.

Question: What about the “overall cell count in BALF” value (neutrophils (PMN); [4]) of the same substance?
Answer: Its value is “significant reduction”.

Question: What about the “neutrophil migration into the basal chamber” value (human neutrophils; 10 nm CGS, no FMLP, n=4) of the same substance?
Answer: Its value is 233±61 cells.

Question: What about the “neutrophil migration into the basal chamber” value (human neutrophils; 20 nm CGS, no FMLP, n=4) of the same substance?
Answer: The value was 293±148 cells.

Question: What about the “inhibition of FMLP-induced neutrophil migration” value (human neutrophils; FMLP + 10 nm Compound 1) of the same substance?
Answer: The value was “did not achieve significance”.

Question: And the “neutrophil migration into the basal chamber” value (human neutrophils; FMLP+20 nm CGS, n=4 (FMLP alone 4280±480))?
Answer: The value was 2819±362 cells.

Question: And the “MMP-9 activity (Quantikine)” value (MMP 9; LPS nasal instillation then inhaled Compound 1 (5 mg/mL), lung homogenates one hour post-treatment, n=6 (LPS 9260±1173, PBS 2388±370))?
Answer: The value was 3614±442.1 RFU.

Question: And the “MMP-9 levels in whole lung homogenate” value (MMP 9; LPS-injured, Compound 1 treated animals)?
Answer: Its value is “decreased significantly”.

Question: And the “ratio of BALF FITC-albumin to serum FITC-albumin” value (LPS injured mice [3])?
Answer: The value was 0.49.
